Legend:
[1] = Modeled human inhaled aerosol pirfenidone pharmacokinetics (FIG. 2, FIG. 5, Table 28)
Description: More specifically, the oral route requires a large oral dose to achieve a relatively small lung tissue Cmax. Delivering a similar Cmax without the large systemic dose provides increased efficacy. However, further escalating this direct lung dose, which results in increased systemic exposure, reduces this effect. […] Specifically, a high lung tissue Cmax is important for lung tissue anti-fibrotic efficacy. However, this positive effect appears dependent upon an associated small plasma AUC; the larger the plasma AUC, the lower the efficacy. […] In practice, the oral route of administration is not capable of meeting this U-shaped-restricted dose response. Safety and tolerability prevent further dose escalation of the 801 mg/dose oral medicine (Esbriet®). […] To illustrate these findings, possible human lung tissue and plasma pharmacokinetics following tidal-breath-inhaled aerosol administration were again modeled (FIG. 5). […] These safety and/or tolerability restrictions may be associated with plasma AUC, plasma Cmax, gastrointestinal exposure or a combination of these events. […] However, this limitation could also be set as the plasma Cmax or a combination of these pharmacokinetic parameters.
Aerosol deliver parameters for the FIGS. 2 and 5 models were based on high-efficiency, mesh-based nebulizer characterization (Table 12). […] Respirable delivered dose (RDD) calculated by the product of fine particle fraction (FPF, %<5 microns) and inhaled mass. […] For this non-limiting example, a FPF of 78% and inhaled mass of 67% was used. Using these numbers, a 90 mg device-loaded dose may produce an RDD of about 47 mg (Table 26 and FIG. 2). […] For this non-limiting example, a FPF of 78% and inhaled mass of 67% was used. Using these numbers, a 230 mg device-loaded dose may produce an RDD of about 120 mg. […] This later dose was modeled to be delivered in 1 minute.
An additional clinical consideration is the rat plasma AUC showing non-efficacy in the bleomycin model. […] Only lower delivered doses show anti-fibrotic effect. Plasma AUCs obtained from higher intratracheal or oral doses appears to have similar non-efficacy or enhanced disease.

[2] = Extended-duration intratracheal and oral pharmacokinetic study; format: in vivo, Wistar rats; conditions: for AUC(0-t) / Cmax: Wistar, rat, plasma
Description: Previous intratracheal aerosol delivery (see Example 6) was performed as a single bolus instillation just above the first bifurcation of the lung. For in vivo efficacy studies, an attempt was made to mimic tidal inhaled breathing by splitting the dose into equal parts and administering as before, but over a 2 minute period. […] Doses were prepared in 0.45% sodium chloride solution and were administered as described in Table 21.
Plasma samples and entire lungs were taken at pre-dose, 2, 4, 6, 10, 30, 60 and 120 minutes post dosing. Materials were extracted and pirfenidone quantitated as mcg/mL plasma and μg/gram lung tissue.

[3] = Pharmacokinetics and tissue distribution (lung, plasma, heart, kidney) of co-solvent formulations, intratracheal bolus aerosol; format: in vivo, Sprague-Dawley rats; conditions: for concentration at 0.167 hr / concentration at 0.333 hr / concentration at 0.667 hr / concentration at 0 h / concentration at 4 min / concentration at 2.5 h / concentration at 0.167 h / concentration at 0.333 h / concentration at 0.667 h / concentration at 1 h: Sprague-Dawley, rat, 4 mg/kg, Pirfenidone, Mean, about 4 mg/kg IT aerosol; for concentration at 0.167 hr / concentration at 0.333 hr / concentration at 0.667 hr: other: intratracheal bolus aerosol (nebulizing catheter); for concentration at 0 h / concentration at 4 min / concentration at 2.5 h / concentration at 0.167 h / concentration at 0.333 h / concentration at 0.667 h / concentration at 1 h: other: intratracheal bolus aerosol; for concentration at 4 min: 0.0667 hr
Description: Selected formulations were prepared for pharmacokinetic analysis following aerosol delivery to rat lung. […] Formulations prepared for this study are outlined in Table 9. […] The sample was agitated until completely dissolved. […] Filtered samples were analyzed by HPLC.

[4] = 85% saturation pirfenidone formulations exposed to several temperatures (re-crystallization); format: physicochemical
Description: However, in all cases pirfenidone eventually re-crystallized. This re-crystallization was not inhibited by pre-filtration of the sample.

[5] = target: T1, 2E1 (Homo sapiens, UniProt P05181); conditions: hepatic microsomes; cited from earlier work
T1 construct: In vitro metabolism studies with hepatic microsomes; from tissue; host or cells: hepatic microsomes

[6] = Aqueous solubility, tonicity salt, dissolution and taste observations on pirfenidone formulations; format: physicochemical
Description: However, at this (and lower) concentration it was determined that salt addition was required to improve acute tolerability upon inhalation of a nebulized solution (otherwise a hypotonic solution). To address tonicity, NaCl or MgCl2 were added. […] This effect was not observed at ˜pH 8.

[7] = inhaled or intranasal, intratracheal aerosol 2.5 mg/kg
[8] = inhaled or intranasal, intratracheal aerosol 5 mg/kg
[9] = inhaled or intranasal, intratracheal aerosol 10 mg/kg
[10] = intratracheal aerosol 2.5 mg/kg

T1 sequence (P05181 whole entry): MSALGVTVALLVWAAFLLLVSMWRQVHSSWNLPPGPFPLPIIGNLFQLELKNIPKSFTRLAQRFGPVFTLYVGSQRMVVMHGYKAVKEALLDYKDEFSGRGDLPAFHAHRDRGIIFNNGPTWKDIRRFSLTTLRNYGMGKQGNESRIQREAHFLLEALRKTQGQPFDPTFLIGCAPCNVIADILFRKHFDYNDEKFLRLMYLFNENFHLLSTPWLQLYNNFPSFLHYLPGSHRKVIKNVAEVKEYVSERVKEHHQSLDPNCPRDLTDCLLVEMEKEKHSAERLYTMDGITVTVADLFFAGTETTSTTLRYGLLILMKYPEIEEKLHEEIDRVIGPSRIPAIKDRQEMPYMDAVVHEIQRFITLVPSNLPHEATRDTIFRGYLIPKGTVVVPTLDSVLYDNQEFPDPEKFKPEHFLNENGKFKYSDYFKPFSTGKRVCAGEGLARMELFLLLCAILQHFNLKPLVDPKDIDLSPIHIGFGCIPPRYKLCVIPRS

SMILES: Cc1ccc(=O)n(-c2ccccc2)c1 [pirfenidone, 5-methyl-1-phenyl-2-(1H)-pyridone]
- lung tissue Cmax compared to 801 mg oral dose ([1]; modeled human, 2.5 mg RDD inhaled over 1 minute): equivalent
- plasma AUC0-18hrs ([1]; modeled human, 29 mg RDD, 3 minute tidal-inhaled nebulized dose): 13400 ng·h/mL
- plasma AUC compared to 801 mg oral pirfenidone dose (with food) ([1]; modeled human, 120 mg RDD inhaled over 5 minutes): equivalent
- human lung tissue Cmax ([1]; modeled, 29 mg RDD, 3 minute tidal-inhaled nebulized dose): 43.2 mcg/gram lung tissue
- Lung Tissue Cmax ([2]; 30 mg/kg PO, rat (Table 22)): ~10 µg/mL
- AUC(0-t) [2, 7]: 3200 ng·h/mL
- Cmax [2, 7]: 3400 ng/mL
- AUC(0-t) [2, 8]: 5800 ng·h/mL
- Cmax [2, 8]: 8800 ng/mL
- AUC(0-t) [2, 9]: 14600 ng·h/mL
- Cmax [2, 9]: 22800 ng/mL
- AUC(0-t) ([2]; oral gavage 10 mg/kg): 4400 ng·h/mL
- Cmax ([2]; oral gavage 10 mg/kg): 3600 ng/mL
- AUC(0-t) ([2]; oral gavage 30 mg/kg): 12900 ng·h/mL
- Cmax ([2]; oral gavage 30 mg/kg): 9800 ng/mL
- AUC(0-t) ([2]; oral gavage 100 mg/kg): 24200 ng·h/mL
- Cmax ([2]; oral gavage 100 mg/kg): 26300 ng/mL
- Lung Tissue AUC(0-2 hr) [2, 10]: 3.5 µg·h/g
- Lung Tissue Cmax [2, 10]: 14.4 μg/gram
- Lung Tissue AUC(0-2 hr) ([2]; intratracheal aerosol 5 mg/kg): 6.6 µg·h/g
- Lung Tissue Cmax ([2]; intratracheal aerosol 5 mg/kg): 27.9 μg/gram
- Lung Tissue AUC(0-2 hr) ([2]; intratracheal aerosol 10 mg/kg): 14.5 µg·h/g
- Lung Tissue Cmax ([2]; intratracheal aerosol 10 mg/kg): 61.1 μg/gram
- adverse events ([2]; intratracheal aerosol over 2 minutes or oral gavage, Wistar rats): No adverse events were noted
- Lung Tissue AUC(0-2 hr) ([2]; oral gavage 10 mg/kg): 4.9 µg·h/g
- Lung Tissue Cmax ([2]; oral gavage 10 mg/kg): 3.5 μg/gram
- Lung Tissue AUC(0-2 hr) ([2]; oral gavage 30 mg/kg): 13.5 µg·h/g
- Lung Tissue Cmax ([2]; oral gavage 30 mg/kg): 9.8 μg/gram
- Lung Tissue AUC(0-2 hr) ([2]; oral gavage 100 mg/kg): 27.9 µg·h/g
- Lung Tissue Cmax ([2]; oral gavage 100 mg/kg): 33.6 μg/gram
- concentration at 0.167 hr ([3]; heart, heart tissue, Group 1): 4910 ng/g
- concentration at 0.333 hr ([3]; heart, heart tissue, Group 1): 3850 ng/g
- concentration at 0.667 hr ([3]; heart, heart tissue, Group 1): 1800 ng/g
- concentration at 0.167 hr ([3]; heart, heart tissue, Group 2): 4100 ng/g
- concentration at 0.333 hr ([3]; heart, heart tissue, Group 2): 3130 ng/g
- concentration at 0.667 hr ([3]; heart, heart tissue, Group 2): 2190 ng/g
- concentration at 0.167 hr ([3]; heart, heart tissue, Group 6): 4950 ng/g
- concentration at 0.333 hr ([3]; heart, heart tissue, Group 6): 3430 ng/g
- concentration at 0.667 hr ([3]; heart, heart tissue, Group 6): 2220 ng/g
- concentration at 0 h ([3]; heart, heart tissue, Group 1): 20 ng/g
- concentration at 4 min ([3]; heart, heart tissue, Group 1): 7900 ng/g
- concentration at 2.5 h ([3]; heart, heart tissue, Group 1): 90 ng/g
- concentration at 0 h ([3]; heart, heart tissue, Group 2): 190 ng/g
- concentration at 4 min ([3]; heart, heart tissue, Group 2): 5920 ng/g
- concentration at 2.5 h ([3]; heart, heart tissue, Group 2): 120 ng/g
- concentration at 0 h ([3]; heart, heart tissue, Group 6): 80 ng/g
- concentration at 4 min ([3]; heart, heart tissue, Group 6): 6320 ng/g
- concentration at 2.5 h ([3]; heart, heart tissue, Group 6): 120 ng/g
- concentration at 0 h ([3]; kidney, kidney tissue, Group 1): 10 ng/g
- concentration at 4 min ([3]; kidney, kidney tissue, Group 1): 9880 ng/g
- concentration at 0.167 h ([3]; kidney, kidney tissue, Group 1): 6620 ng/g
- concentration at 0.333 h ([3]; kidney, kidney tissue, Group 1): 4870 ng/g
- concentration at 0.667 h ([3]; kidney, kidney tissue, Group 1): 2860 ng/g
- concentration at 0 h ([3]; kidney, kidney tissue, Group 2): 470 ng/g
- concentration at 4 min ([3]; kidney, kidney tissue, Group 2): 10800 ng/g
- concentration at 0.167 h ([3]; kidney, kidney tissue, Group 2): 8300 ng/g
- concentration at 0.333 h ([3]; kidney, kidney tissue, Group 2): 7440 ng/g
- concentration at 0.667 h ([3]; kidney, kidney tissue, Group 2): 3310 ng/g
- concentration at 1 h ([3]; kidney, kidney tissue, Group 2): 1750 ng/g
- concentration at 2.5 h ([3]; kidney, kidney tissue, Group 2): 180 ng/g
- concentration at 0 h ([3]; kidney, kidney tissue, Group 6): 270 ng/g
- concentration at 4 min ([3]; kidney, kidney tissue, Group 6): 12900 ng/g
- concentration at 0.167 h ([3]; kidney, kidney tissue, Group 6): 6650 ng/g
- concentration at 0.333 h ([3]; kidney, kidney tissue, Group 6): 4870 ng/g
- concentration at 0.667 h ([3]; kidney, kidney tissue, Group 6): 3530 ng/g
- concentration at 1 h ([3]; kidney, kidney tissue, Group 6): 1710 ng/g
- adverse events ([3]; about 4 mg/kg intratracheal bolus aerosol, co-solvent formulations, rats): No adverse events were noted
- Recrystallization upon storage ([4]; overnight at 4° C., 23.0 mg/mL (85% saturation), 4% EtOH, 8% PG, 88% phosphate buffer (5 mM), pH 6.6): No
- Recrystallization upon storage ([4]; overnight at 4° C., 29.5 mg/mL, 6% EtOH, 12% PG, 82% phosphate buffer (5 mM), pH 7.0): No
- Recrystallization upon storage ([4]; overnight at 4° C., […], 8% EtOH, 16% PG, 76% phosphate buffer (5 mM), pH 7.0): No
- Recrystallization upon storage ([4]; overnight at 15° C., 23.0 mg/mL (85% saturation), 4% EtOH, 8% PG, 88% phosphate buffer (5 mM), pH 6.6): No
- Recrystallization upon storage ([4]; overnight at 15° C., 29.5 mg/mL, 6% EtOH, 12% PG, 82% phosphate buffer (5 mM), pH 7.0): No
- Recrystallization upon storage ([4]; overnight at 15° C., […], 8% EtOH, 16% PG, 76% phosphate buffer (5 mM), pH 7.0): No
- Recrystallization upon storage ([4]; overnight at 25° C., 23.0 mg/mL (85% saturation), 4% EtOH, 8% PG, 88% phosphate buffer (5 mM), pH 6.6): No
- Recrystallization upon storage ([4]; overnight at 25° C., 27.2 mg/mL (saturation solubility), 4% EtOH, 8% PG, 88% phosphate buffer (5 mM), pH 6.6): Yes
- Recrystallization upon storage ([4]; overnight at 25° C., 29.5 mg/mL, 6% EtOH, 12% PG, 82% phosphate buffer (5 mM), pH 7.0): No
- Recrystallization upon storage ([4]; overnight at 25° C., 34.7 mg/mL, 6% EtOH, 12% PG, 82% phosphate buffer (5 mM), pH 7.0): Yes
- Recrystallization upon storage ([4]; overnight at 25° C., 43.7 mg/mL, 8% EtOH, 16% PG, 76% phosphate buffer (5 mM), pH 7.0): Yes
- Recrystallization upon storage ([4]; overnight at 25° C., […], 8% EtOH, 16% PG, 76% phosphate buffer (5 mM), pH 7.0): No
- Recrystallization upon storage ([4]; overnight at −20° C., 23.0 mg/mL (85% saturation), 4% EtOH, 8% PG, 88% phosphate buffer (5 mM), pH 6.6, crystals re-dissolved at 25° C. without agitation): Yes^f
- Recrystallization upon storage ([4]; overnight at −20° C., 29.5 mg/mL, 6% EtOH, 12% PG, 82% phosphate buffer (5 mM), pH 7.0, crystals re-dissolved at 25° C. without agitation): Yes^f
- Recrystallization upon storage ([4]; overnight at −20° C., […], 8% EtOH, 16% PG, 76% phosphate buffer (5 mM), pH 7.0, crystals re-dissolved at 25° C. without agitation): Yes^f
- contribution to pirfenidone metabolism [5]: less than 13%
- formulation stability on storage ([6]; MgCl2 added, 1:1 and 1:2 mole ratios of magnesium to pirfenidone): maintained a stable, soluble solution
- solubility ([6]; aqueous solution, aqueous buffer, across a pH range of about 4.0 to about 8.0): ~17 mg/mL
- formulation stability on storage ([6]; ~17 mg/mL pirfenidone, NaCl added for tonicity, ambient storage): precipitation upon ambient storage

Reference: patent US10028966B2 (Avalyn Pharma Inc., priority 2014, dated 2018)
